This is an account of results in article PMC7607171, “Optimized low‐dose combinatorial drug treatment boosts selectivity and efficacy of colorectal carcinoma treatment” (Molecular Oncology, 2020).

One data set relates to DLD1 tumors. Description: Subcutaneous xenograft tumor growth. It counts as in vivo, Swiss nu/nu mice. The procedure:
(§1) All procedures including animal use were performed in accordance with the Institutional Ethical Committee of Animal Care in Geneva and the Swiss Cantonal Veterinary Office (Authorization number GE‐136‐19). Briefly, female and male Swiss nu/nu mice aged 6–8 weeks were obtained from Charles River (Écully, France). For subcutaneous xenografts mice were inoculated in the left flank with 5x10^6 DLD1 or SW620 cells suspended in 100 µL of cell culture medium, supplemented with 1% FBS.
Drugs were administered through oral gavage based on average body weight of the males (100 µL/mouse) and females (80 µL/mouse) at various concentrations, see Tables S10 and S11.
Solution A: step (1) 30% PEG 400 + 5% propylene glycol + 0.5% Tween 80 and (2) 64.5% sterile H2O. Solution B: step (1) 10% DMSO, (2) 30% PEG 300 + 5% Tween 80 and (3) 55% sterile H2O. […] FOLFOX was administered as 6 mg/kg oxaliplatin two hours before administration of 90 mg/kg leucovorin and 50 mg/kg (DLD1) or 25 mg/kg (SW620) 5‐fluorouracil at day 1 and a repeat of 5‐fluorouracil dosing on day 2.
The Bliss independence model can be used to evaluate the drug interaction potential of a drug mixture. […] The model is based on the probability theory and requires the drug activity of each drug at the selected dose to predict the inhibition rate (IR) at additive doses.

A further data set deals with SW620 tumors. Description: Subcutaneous xenograft tumor growth. Format: in vivo, Swiss nu/nu mice. As to the method:
as §1, with “FBS. Treatment was initiated when palpable tumors had formed (approximately 30 mm^3) on day 4 for DLD1 and day 5 for the SW620 model.” for “FBS.”
Treatment was initiated once tumor growth was confirmed with bioluminescence measurements. Drugs were administered through oral gavage based on average body weight of the males (100 µL/mouse) and females (80 µL/mouse) at various concentrations, see Tables S10 and S11.
Solution A: step (1) 30% PEG 400 + 5% propylene glycol + 0.5% Tween 80 and (2) 64.5% sterile H2O. Solution B: step (1) 10% DMSO, (2) 30% PEG 300 + 5% Tween 80 and (3) 55% sterile H2O. Vemurafenib was prepared 2x concentrated (half or three/sixth of total solution), and the remaining drugs were prepared 6x concentrated (one/sixth of total solution), after which drugs were diluted to prepare 1x drug concentrations for the ODC or single drugs using the other drugs or complete solvent solutions without drugs for lower concentrations. FOLFOX was administered as 6 mg/kg oxaliplatin two hours before administration of 90 mg/kg leucovorin and 50 mg/kg (DLD1) or 25 mg/kg (SW620) 5‐fluorouracil at day 1 and a repeat of 5‐fluorouracil dosing on day 2.
The Bliss independence model can be used to evaluate the drug interaction potential of a drug mixture. The model is based on the principle that each drug has an independent drug mechanism of action, but all contribute to a common result (e.g., cell death or tumor volume inhibition). The model is based on the probability theory and requires the drug activity of each drug at the selected dose to predict the inhibition rate (IR) at additive doses. For in vivo tumor volume results, we predicted the IR based on the fraction of tumor volume remaining after single‐drug treatment of each of the drugs vs 100% CTRL (F1,2,3,4), using the following formula: IR = […].

The conditions of data set [1]: 0-24h, oral, cited from earlier work.
Another data set deals with SW620 cells. Description: CellTiter-Glo metabolic ATP activity assay, 2D culture. The note with it: low-dose single drug (hormetic dose effect). Format: cell-based, human. The procedure:
Drugs were dissolved in DMSO and stored at −80, and aliquots were thawn prior to each use. Drugs were dissolved at concentrations resulting in in vitro experimental conditions 0.15% DMSO maximum in the culture medium. […] The 48‐hour retreatment was performed by adding another volume of media containing a 1x concentration of drugs to not affect the final concentration in the wells.
Drug treatment activity in 2D and 3D cultures was measured using the CellTiter‐Glo® cell metabolic activity (ATP) assays (G7572 and G9683, Promega, Madison, WI, USA), according to the manufacturer`s instructions. Assay bioluminescence was detected using the BioTek Cytation 3 and corresponding Gen5 Image software version 3.04 at standard settings.
The next step is the drug combination screening in Search 1 (11 drugs in 155 combinations) according to the OACD resolution IV matrix and performed in the CRC and the nonmalignant CCD841CoN cell simultaneously. The resulting output of the drug combination activity was measured in cell metabolic activity (ATP levels, % CTRL) to represent cell viability and consisted of the average of technical triplicate values. The experimental data points are then used for step‐wise second‐order linear regression analysis by Matlab®. This model mathematically describes the relationship between the drug combination input and output activity of each possible two‐drug combination. […]

For the next data set, the system named is HCT116 cells. Description: Tunneling nanotubule (TNT) quantification, F-actin/DAPI staining. Format: cell-based, human.
[2] abbreviates: regorafenib 15 mg/kg, Exp 5, Day 16.
Where [3] appears, read: regorafenib 30 mg/kg, Exp 2, Day 14.
[4] abbreviates: regorafenib 30 mg/kg, Exp 5, Day 16.
Setting [5] is: regorafenib 50 mg/kg, Exp 3, Day 13.
The mark [6] stands for this setting: regorafenib 30 mg/kg, Exp 4, Day 22.
Setting [7] is: regorafenib 30 mg/kg, Exp 6, Day 20.
[8] abbreviates: regorafenib 30 mg/kg, Exp 8, Day 19.
[9] abbreviates: selumetinib 1 mg/kg, Exp 6, Day 18.
The mark [10] stands for this setting: selumetinib 5 mg/kg, Exp 5, Day 16.
Where [11] appears, read: selumetinib 5 mg/kg, Exp 7, Day 25.
The mark [12] stands for this setting: selumetinib 10 mg/kg, Exp 5, Day 16.
[13] abbreviates: selumetinib 25 mg/kg, Exp 3, Day 13.
Setting [14] is: selumetinib 0.2 mg/kg, Exp 6, Day 20.
[15] abbreviates: selumetinib 0.2 mg/kg, Exp 8, Day 19.
Setting [16] is: selumetinib 1 mg/kg, Exp 4, Day 22.
[17] abbreviates: selumetinib 10 mg/kg, Exp 4, Day 22.
The mark [18] stands for this setting: vemurafenib 25 mg/kg, Exp 2, Day 14.
Where [19] appears, read: vemurafenib 75 mg/kg b.i.d., Exp 3, Day 13.
[20] abbreviates: vemurafenib 75 mg/kg, Exp 2, Day 14.
Setting [21] is: vemurafenib 75 mg/kg, Exp 5, Day 16.
[22] abbreviates: vemurafenib 75 mg/kg, Exp 7, Day 15.
[23] abbreviates: vemurafenib 150 mg/kg b.i.d., Exp 4, Day 16.
The mark [24] stands for this setting: vemurafenib 75 mg/kg, Exp 6, Day 20.

Where two headings read alike, the source gives them in different places.

Take `CNC(=O)c1cc(Oc2ccc(NC(=O)Nc3ccc(Cl)c(C(F)(F)F)c3)c(F)c2)ccn1` [regorafenib]: the “% CTRL (tumor volume)” value is 87 75 34 % CTRL in the data set on DLD1 tumors (setting [2]); 96 24 38 % CTRL in the data set with DLD1 tumors (regorafenib 15 mg/kg, Exp 7, Day 15); 85 46 20 % CTRL with DLD1 tumors (setting [3]); 63 56 25 % CTRL in the data set with DLD1 tumors (setting [4]); 135 76 29 % CTRL in the data set with DLD1 tumors (setting [5]); 117 45 20 % CTRL in the data set with SW620 tumors (setting [6]). Further, the “% CTRL (tumor volume)” value with SW620 tumors (setting [7]) is given as 90 78 35 % CTRL; with SW620 tumors (setting [8]), 44 18 10 % CTRL. The Volume in the data set with DLD1 tumors (setting [2]) was 559 479 214 mm^3; in the data set with DLD1 tumors (setting [3]), 594 320 143 mm^3; in the data set on DLD1 tumors (setting [4]), 404 358 160 mm^3; in the data set with DLD1 tumors (setting [5]) it was 465 261 99 mm^3; in the data set with SW620 tumors (setting [6]) it was 567 220 98 mm^3; with SW620 tumors (setting [7]), 468 407 182 mm^3. Further, the Volume in the data set with SW620 tumors (setting [8]) is 278 111 64 mm^3. In addition, the AUC is 50260 ng·h/mL in data set [1] (160 mg/kg, 3 wk on/ 1 wk off, ref 12) and 58300 ng·h/mL in data set [1] (160 mg/kg, 3 wk on/ 1 wk off, ref 13).
As for `Cn1cnc2c(F)c(Nc3ccc(Br)cc3Cl)c(C(=O)NOCCO)cc21` [selumetinib], the “% CTRL (tumor volume)” value with DLD1 tumors (setting [9]) is listed as 74 29 12 % CTRL; with DLD1 tumors (setting [10]), 37 39 20 % CTRL; in the data set on DLD1 tumors (setting [11]), 67 50 25 % CTRL; in the data set with DLD1 tumors (selumetinib 10 mg/kg, Exp 4, Day 16), 82 49 22 % CTRL; with DLD1 tumors (setting [12]), 33 18 8 % CTRL; in the data set with DLD1 tumors (setting [13]), 49 33 13 % CTRL. Further, the “% CTRL (tumor volume)” value is 39 16 7 % CTRL in the data set on DLD1 tumors (selumetinib 50 mg/kg, Exp 2, Day 14); 76 41 21 % CTRL with SW620 tumors (setting [14]); 93 5 3 % CTRL with SW620 tumors (setting [15]); 67 55 24 % CTRL with SW620 tumors (setting [16]); 43 20 9 % CTRL in the data set with SW620 tumors (setting [17]). The Volume is recorded as 366 142 58 mm^3 in the data set on DLD1 tumors (setting [9]); 237 234 125 mm^3 in the data set with DLD1 tumors (setting [10]); 408 223 79 mm^3 in the data set on DLD1 tumors (setting [11]); 213 117 52 mm^3 in the data set on DLD1 tumors (setting [12]); 168 112 46 mm^3 with DLD1 tumors (setting [13]); 393 214 107 mm^3 in the data set on SW620 tumors (setting [14]). The Volume in the data set with SW620 tumors (setting [15]) is recorded as 588 30 21 mm^3; in the data set on SW620 tumors (setting [16]) it was 323 265 118 mm^3; in the data set on SW620 tumors (setting [17]), 209 95 43 mm^3.
For the compound `CCCS(=O)(=O)Nc1ccc(F)c(C(=O)c2c[nH]c3ncc(-c4ccc(Cl)cc4)cc23)c1F` [vemurafenib], the “% CTRL (tumor volume)” value is recorded as 80 33 19 % CTRL in the data set on DLD1 tumors (setting [18]); 113 88 39 % CTRL with DLD1 tumors (setting [19]); 87 46 23 % CTRL with DLD1 tumors (setting [20]); 94 31 14 % CTRL in the data set with DLD1 tumors (setting [21]); 123 69 24 % CTRL with DLD1 tumors (setting [22]); 105 64 28 % CTRL in the data set with DLD1 tumors (setting [23]). For the same compound, the “% CTRL (tumor volume)” value in the data set with SW620 tumors (setting [24]) was 65 42 21 % CTRL; with SW620 tumors (vemurafenib 75 mg/kg, Exp 8, Day 19) it was 94 48 58 % CTRL. The Volume is recorded as 562 231 133 mm^3 with DLD1 tumors (setting [18]); 388 304 136 mm^3 in the data set with DLD1 tumors (setting [19]); 612 319 160 mm^3 in the data set on DLD1 tumors (setting [20]); 600 200 89 mm^3 with DLD1 tumors (setting [21]); 619 347 123 mm^3 in the data set on DLD1 tumors (setting [22]); 587 354 159 mm^3 in the data set on DLD1 tumors (setting [23]). Further, the Volume in the data set with SW620 tumors (setting [24]) is listed as 337 219 109 mm^3. The “effect on cell viability” value with SW620 cells is recorded as “increased cell viability”. Besides, the AUC was 131000 ng·h/mL in data set [1] (960 mg/kg twice daily) and 21100 ng·h/mL in data set [1] (960 mg/kg twice daily, ref EPAR 002409). For the same compound, the “cells forming tunneling nanotubules (TNTs, > 10 µm)” value with HCT116 cells (single drug (CTRL 9.5%)) was 14.0%. The TNT length with HCT116 cells (single drug (CTRL 21 µm), nonsignificant) is 32 µm.

The AUC is the area under the concentration-time curve, a measure of exposure.
